# Reference: patent publication US10053422B2, “Compounds for the treatment of mTOR pathway related diseases” (Pitney Pharmaceuticals Pty Limited, priority 2012, dated 2018)
# “Also recorded” adds a separate entry of the source. Where two headings read alike, the source gives them in different places.
# Assays:
# [1] = test system: CHO (Chinese hamster ovarian cells); assay: SRB cell proliferation assay, CHO; format: cell-based; conditions: Cricetulus griseus
# Protocol: (§1) Cell proliferation was assessed using the sulforhodamine B (SRB) assay. Cells seeded in 96-well plate (2,000-3,000 cell/well) were treated with MPL (0, 1, 5, 10, 25, 50 and 100 μmol/L) for 72 h. Cells were then fixed, washed and stained with 100 μl of 0.4% (w/v) SRB dissolved in 1% acetic acid. Unbound dye was removed by five washes with 1% acetic acid before air drying. Bound SRB was solubilized with 100 μl of 10 mM Tris base (pH 10.5) and the absorbance read at 570 nm. Exactly the same procedure was used to assess MPL-SO2. Both agents were dissolved in ethanol and diluted with media to give the final concentrations required for cell culture assays.
# A2780 cells = assay: SRB cell proliferation assay, A2780; format: cell-based, human
# Protocol: as §1
# OVCAR-3 cells = assay: SRB cell proliferation assay, OVCAR-3; format: cell-based, human
# Protocol: as §1
# [2] = test system: HUVEC (human umbilical vein endothelial cells); assay: SRB cell proliferation assay, HUVEC; format: cell-based
# Protocol: as §1
# nematodes = conditions: previously shown; cited from earlier work
# [3] = test system: HT-29 5m11 cells (colorectal cancer); assay: SRB cell proliferation assay, HT-29 5m11; format: cell-based; conditions: Homo sapiens; HT-29 5m11, colorectal cancer (Table 2); read-out: IC50 in suppressing proliferation
# Protocol: as §1
# HeLa cells = assay: SRB cell proliferation assay, HeLa; format: cell-based; conditions: Homo sapiens, epithelial (adenocarcinoma) (Table 2), read-out: IC50 in suppressing proliferation
# Protocol: as §1
# U87 cells (glioblastoma) = assay: SRB cell proliferation assay, U87; format: cell-based; conditions: Homo sapiens, U-87 MG
# Protocol: as §1
# [4] = test system: HCT-116 cells (colorectal cancer); assay: SRB cell proliferation assay, HCT-116; format: cell-based; conditions: Homo sapiens; HCT-116, colorectal cancer (Table 2); read-out: IC50 in suppressing proliferation
# Protocol: as §1
# 3T3 fibroblast = assay: SRB cell proliferation assay, 3T3; format: cell-based; conditions: 3T3, fibroblast (Table 2); read-out: IC50 in suppressing proliferation
# Protocol: as §1
# IGROV-1 cells = assay: SRB cell proliferation assay, IGROV-1; format: cell-based; conditions: Homo sapiens; IGROV-1, ovarian cancer (Table 2); read-out: IC50 in suppressing proliferation
# Protocol: as §1
# MCF-7 cells = assay: SRB cell proliferation assay, MCF-7; format: cell-based; conditions: Homo sapiens, MCF7
# Protocol: as §1
# cancer cell lines = assay: SRB cell proliferation assay, range of cancer cell lines (general statements); format: cell-based
# Protocol: as §1
# In brief, MPL and MPL-SO2 were tested in vitro against a wide range of cancer cell-lines with extensively different disease characteristics. For further detailed studies, human ovarian cancer cell lines OVCAR-3 and A2780 were chosen. Additionally, normal human ovarian surface epithelial cells (HOSE) and were cultured in the presence of MPL (0, 5, 10, 25, 50 and 100 μM) for 72 h. Cell viability was assessed using Trypan blue assay (FIG. 9). Similarly, effect of MPL on the growth of normal epithelial, endothelial, embryonic and fetal cells were investigated (FIG. 10) while cell proliferation was assessed using the SRB assay (FIG. 11). Control (vehicle treated) cells were taken to present 100% proliferation and the MPL treated groups are expressed as percentage of control±SEM. Each drug concentration was tested in quadruplicate and each experiment was repeated at least twice. For statistical comparisons, each drug treated group is compared to the control group using Student's t test. To examine concentration dependent drug effect, analysis of variance (ANOVA) was used. P values are: *=<0.05; **<0.01 and ***=<0.001, **** p<0.0001. […] In order to find out if the MPL effect is mediated through the nicotinic acetyl choline receptor and in particular the nACHR7 subtype, cells were pretreated with antagonists and then exposed to MPL (FIG. 12).
# LN-18 cells (glioma) = assay: SRB cell proliferation assay, LN-18; format: cell-based; conditions: Homo sapiens; LN-18, glioma (Table 2); read-out: IC50 in suppressing proliferation
# Protocol: as §1
# [5] = test system: HT-29 cells (colorectal cancer); assay: SRB cell proliferation assay, HT-29; format: cell-based; conditions: Homo sapiens; HT-29, colorectal cancer (Table 2); read-out: IC50 in suppressing proliferation
# Protocol: as §1
# 1A9 cells = assay: SRB cell proliferation assay, 1A9; format: cell-based; conditions: Homo sapiens
# Protocol: as §1
# T98G cells (glioma) = assay: SRB cell proliferation assay, T98G; format: cell-based; conditions: Homo sapiens, glioma (Table 2), read-out: IC50 in suppressing proliferation
# Protocol: as §1
# MDA-MB-231 cells = assay: SRB cell proliferation assay, MDA-MB-231; format: cell-based; conditions: Homo sapiens
# Protocol: as §1
# HaCat keratinocyte = assay: SRB cell proliferation assay, HaCat; format: cell-based; conditions: Homo sapiens, keratinocyte (Table 2), read-out: IC50 in suppressing proliferation
# Protocol: as §1
# SKOV-3 cells = assay: SRB cell proliferation assay, SKOV-3; format: cell-based; conditions: Homo sapiens, SK-OV-3
# Protocol: as §1
# T47-D cells = assay: SRB cell proliferation assay, T47-D; format: cell-based; conditions: Homo sapiens, T47D, breast cancer (Table 2), read-out: IC50 in suppressing proliferation
# Protocol: as §1
# U87 glioma cells = assay: Autophagy (vacuoles, LC3-II), U87; format: cell-based; conditions: U87 glioma cells
# Excerpt: Autophagy is a characteristic of mTOR inhibition.
# Concentration-dependent conversion of LC3-I to LC3-II confirms the increasing phenomenon of autophagy in these cells.
# [6] = CHO = Chinese hamster ovarian cells (Table 3), read-out: IC50 μM CHO
# [7] = A2780, human epithelial ovarian cancer (Table 3), read-out: IC50 μM A2780
# [8] = OVCAR-3, human epithelial ovarian cancer (Table 3), read-out: IC50 μM OVCAR-3
# [9] = HUVEC = human umbilical vein endothelial cells (Table 3), read-out: IC50 μM HUVEC
smiles,measurement,setting,value
CC(C#N)(COc1cc(F)c(F)cc1Br)NC(=O)c1ccc(OC(F)(F)F)cc1 (stereo not shown) [AAD 1336],IC50,[1]; [6],31.8 µM
same,IC50,A2780 cells; [7],17 ± 1.2 µM
same,IC50,OVCAR-3 cells; [8],14.7 ± 1.25 µM
same,ratio of IC50 values (normal cell/cancer cell),OVCAR-3 cells; results of Table 3,particularly high activity
same,IC50,[2]; [9],61.3 µM
"C[C@@](C#N)(COc1cc(C#N)ccc1C(F)(F)F)NC(=O)c1ccc(SC(F)(F)F)cc1 [AAD 2224, N-[(1R)-1-cyano-2-(5-cyano-2-trifluoromethyl-phenoxy)-1-methyl-ethyl]-4-trifluoromethylsulfanyl-benzamide]",IC50,[1]; [6],23.4 µM
same,IC50,A2780 cells; [7],14.8 ± 0.45 µM
same,IC50,OVCAR-3 cells; [8],8 ± 0.7 µM
same,potency of MPL-(R) compared with MPL-(S),OVCAR-3 cells; results of Table 3,equipotent
same,ratio of IC50 values (normal cell/cancer cell),OVCAR-3 cells; results of Table 3,particularly high activity
same,anthelmintic activity,nematodes,no anthelmintic activity
same,IC50,[2]; [9],109 µM
"C[C@](C#N)(COc1cc(C#N)ccc1C(F)(F)F)NC(=O)c1ccc(S(=O)(=O)C(F)(F)F)cc1 [MPL-SO2, monepantel sulphone]",IC50,[3],21.7 µM
same,IC50,HeLa cells,18.2 ± 2.6 µM
same,IC50,"U87 cells (glioblastoma); U87, glioblastoma, 72 h, SRB assay (Table 1), read-out: IC50",20.5 µM
same,IC50,"U87 cells (glioblastoma); U87, glioma (Table 2), read-out: IC50 in suppressing proliferation",20.5 ± 1 µM
same,IC50,"[1]; CHO (Table 2), read-out: IC50 in suppressing proliferation",73.7 ± 6 µM
same,IC50,"[1]; CHO, 72 h, SRB assay (Table 1), read-out: IC50",73.7 µM
same,IC50,[4],22.5 ± 5.7 µM
same,IC50,3T3 fibroblast,11.2 ± 1.1 µM
same,IC50,IGROV-1 cells,4.4 ± 1.5 µM
same,IC50,"MCF-7 cells; MCF-7, breast cancer (Table 2), read-out: IC50 in suppressing proliferation",8 ± 0.7 µM
same,IC50,"MCF-7 cells; MCF-7, breast cancer, 72 h, SRB assay (Table 1), read-out: IC50",7.3 µM
same,viability of cancer cell-lines growing in culture,cancer cell lines,reduced viability
same,potency compared with MPL in suppressing cancer cell proliferation,cancer cell lines; SRB proliferation assay,as potent as MPL; also recorded: as effective as MPL
same,IC50,"A2780 cells; Homo sapiens, A2780, ovarian cancer (Table 2), read-out: IC50 in suppressing proliferation",4.2 µM
same,IC50,"A2780 cells; Homo sapiens, A2780, ovarian cancer, 72 h, SRB assay (Table 1), read-out: IC50",4.2 µM
same,IC50,LN-18 cells (glioma),6.64 ± 0.71 µM
same,IC50,[5],2.75 ± 0.7 µM
same,IC50,"OVCAR-3 cells; Homo sapiens, OVCAR-3, ovarian cancer (Table 2), read-out: IC50 in suppressing proliferation",5.5 ± 1.3 µM
same,IC50,"OVCAR-3 cells; Homo sapiens, OVCAR-3, ovarian cancer, 72 h in vitro treatment, SRB assay (Table 1), read-out: IC50",5.5 µM
same,IC50,"1A9 cells; 1A9, ovarian cancer (Table 2), read-out: IC50 in suppressing proliferation",3.42 ± 0.1 µM
same,IC50,"1A9 cells; 1A9, ovarian cancer, 72 h, SRB assay (Table 1), read-out: IC50",4.8 µM
same,IC50,T98G cells (glioma),25.4 ± 0.28 µM
same,IC50,"MDA-MB-231 cells; MDA-MB-231, breast cancer (Table 2), read-out: IC50 in suppressing proliferation",21.6 µM
same,IC50,"MDA-MB-231 cells; MDA-MB-231, breast cancer, 72 h, SRB assay (Table 1), read-out: IC50",23.6 µM
same,IC50,HaCat keratinocyte,42.7 ± 8 µM
same,IC50,"SKOV-3 cells; SKOV-3, ovarian cancer (Table 2), read-out: IC50 in suppressing proliferation",26 µM
same,IC50,"SKOV-3 cells; SKOV-3, ovarian cancer, 72 h, SRB assay (Table 1), read-out: IC50",26 µM
same,IC50,"[2]; Homo sapiens, HUVEC (Table 2), read-out: IC50 in suppressing proliferation",47 µM
same,IC50,"[2]; Homo sapiens, HUVEC, 72 h, SRB assay (Table 1), read-out: IC50",47.8 µM
same,IC50,T47-D cells,10.2 ± 0.6 µM
same,formation of vacuoles (autophagy),U87 glioma cells,formation of vacuoles
CC(C#N)(COc1cc(F)c(F)cc1C(F)(F)F)NC(=O)c1ccc(OC(F)(F)F)cc1 (stereo not shown) [AAD 1470],IC50,[1]; [6],32.2 µM
same,IC50,A2780 cells; [7],19.5 ± 4.1 µM
same,IC50,OVCAR-3 cells; [8],12.9 ± 0.3 µM
same,ratio of IC50 values (normal cell/cancer cell),OVCAR-3 cells; results of Table 3,particularly high activity
same,IC50,[2]; [9],74 µM
CC(C#N)(COc1cc(F)ccc1Cl)NC(=O)c1ccc(OC(F)(F)F)cc1 (stereo not shown) [AAD 004],IC50,[1]; [6],57.3 µM
same,IC50,A2780 cells; [7],27.3 ± 0.5 µM
same,IC50,OVCAR-3 cells; [8],18.6 ± 2.4 µM
same,IC50,[2]; [9],93 µM
